Data published in the supplement of paper PMC10331698.
± gives the standard deviation of the averaged measurements.

How the values were obtained:
Experiment in all cases: level (log10 ratio to DMSO vehicle control); higher = higher biomarker level / cell amount than vehicle control
Settings in all cases: in DMSO
[1] = compound: N=C(N)C(F)(F)C(F)(F)C(F)(F)C(F)(F)C(F)(F)C(F)(F)C(F)(F)F [Perfluorooctanamidine]
Protocol: (§1)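 BioMAP Diversity Plus panel of 12 human primary cell co-culture systems (3C, 4H, LPS, SAg, BT, BF4T, BE3C, CASM3C, HDF3CGF, KF3CT, MyoF, Mphg). Compounds were added 1 h before stimulation and left for 24 h (MyoF 48 h; BT 72 h for soluble read-outs or 6 d for IgG). Biomarkers were read by ELISA, cytotoxicity by SRB, PBMC viability and proliferation by Alamar Blue. Each well value was divided by the mean of 8 DMSO control wells on the same plate and log10 transformed; duplicate blinded samples were tested at 4 concentrations.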

[2] = compound: CNS(=O)(=O)C(F)(F)C(F)(F)C(F)(F)C(F)(F)C(F)(F)C(F)(F)C(F)(F)C(F)(F)F [N-Methylperfluorooctanesulfonamide]
Protocol: as §1

[3] = compound: C=CC(=O)OCCC(F)(F)C(F)(F)C(F)(F)C(F)(F)F [2-(Perfluorobutyl)ethyl acrylate]
Protocol: as §1

[4] = compound: O=C(O)C(F)(F)C(F)(F)C(F)(F)C(F)(F)C(F)(F)C(F)(F)C(F)(F)C(F)(F)C(F)(F)C(F)(F)C(F)(F)C(F)(F)C(F)(F)F [Perfluorotetradecanoic acid]
Protocol: as §1

[5] = compound: CC(C)(C)C(=O)CC(=O)C(F)(F)C(F)(F)C(F)(F)F [(Heptafluorobutanoyl)pivaloylmethane]
Protocol: as §1

[6] = compound: O=C(O)C(F)(F)C(F)(F)C(F)(F)C(F)(F)C(F)(F)F [Perfluorohexanoic acid]
Protocol: as §1

[7] = compound: OCC(F)(F)C(F)(F)C(F)(F)F [1H,1H-Heptafluorobutanol]
Protocol: as §1

Test System	level (log10) ([1]; 6700 nM)	level (log10) ([1]; 20000 nM)	level (log10) ([1]; 60000 nM)	level (log10) ([2]; 6700 nM)	level (log10) ([2]; 20000 nM)	level (log10) ([2]; 60000 nM)	level (log10) ([3]; 6700 nM)	level (log10) ([3]; 20000 nM)	level (log10) ([3]; 60000 nM)	level (log10) ([4]; 6700 nM)	level (log10) ([4]; 20000 nM)	level (log10) ([5]; 6700 nM)	level (log10) ([5]; 20000 nM)	level (log10) ([5]; 60000 nM)	level (log10) ([6]; 6700 nM)	level (log10) ([6]; 20000 nM)	level (log10) ([6]; 60000 nM)	level (log10) ([7]; 6700 nM)	level (log10) ([7]; 20000 nM)	level (log10) ([7]; 60000 nM)
lMphg:sIL-10	-0.051 ± 0.018	-0.118 ± 0.0057	-0.121	-0.0935 ± 0.016	-0.115 ± 0.03	-0.169 ± 0.1	-0.0435 ± 0.011	-0.07 ± 0.021	-0.0715 ± 0.054	-0.032 ± 0.0014	-0.0315 ± 0.033	0.024 ± 0.0099	-0.0365 ± 0.061	0.0125 ± 0.032	-0.0285 ± 0.0092	-0.0375 ± 0.046	-0.0945 ± 0.021	-0.165 ± 0.033	0.032 ± 0.014	-0.0565 ± 0.097
3C:CD62E/E-Selectin	-0.0045 ± 0.023	-0.005 ± 0.027	-0.039	-0.011 ± 0.025	0.01 ± 0.023	-0.072 ± 0.011	-0.016 ± 0.0028	-0.059 ± 0.0014	-0.163 ± 0.05	-0.0245 ± 0.029	-0.0105 ± 0.00071	-0.0155 ± 0.0092	-0.022 ± 0.0099	-0.003 ± 0.017	-0.0065 ± 0.0092	-0.007 ± 0.011	0.0145 ± 0.029	-0.006 ± 0.0028	-0.0025 ± 0.0035	0.015 ± 0.016
HDF3CGF:Proliferation 72hr	-0.0255 ± 0.043	-0.0515 ± 0.1	-0.564	-0.001 ± 0.073	0.0205 ± 0.073	-0.056 ± 0.095	-0.0325 ± 0.0092	-0.124 ± 0.054	-0.197 ± 0.041	0.0655 ± 0.046	-0.063 ± 0.054	-0.0465 ± 0.028	0.097 ± 0.031	0.094 ± 0.014	0.04 ± 0.0014	0.015 ± 0.034	0.0305 ± 0.037	-0.011 ± 0.023	0.0255 ± 0.032	-0.029 ± 0.013
HDF3CGF:Collagen I	-0.015 ± 0.0085	-0.025 ± 0.03	-0.021	-0.0245 ± 0.012	-0.041 ± 0.038	0.0085 ± 0.066	-0.065 ± 0.02	-0.0225 ± 0.042	-0.0295 ± 0.054	-0.0105 ± 0.076	0.016 ± 0.078	-0.0025 ± 0.029	-0.044 ± 0.04	0.0405 ± 0.044	-0.035 ± 0.033	0.02 ± 0.025	-0.0035 ± 0.054	-0.005 ± 0.016	-0.0215 ± 0.0021	0.012 ± 0.017
BE3C:uPA	-0.008 ± 0.011	-0.0095 ± 0.0078	0.004	0.008 ± 0.0085	0.0065 ± 0.0064	0.003 ± 0.0014	0.0075 ± 0.032	-0.0035 ± 0.022	-0.0175 ± 0.015	-0.0075 ± 0.05	-0.0085 ± 0.056	0.0025 ± 0.018	-0.0035 ± 0.023	0.002 ± 0.03	-0.03 ± 0.013	-0.01 ± 0.018	0.0025 ± 0.016	-0.0035 ± 0.005	0.015 ± 0.011	0.002 ± 0.0028
3C:CCL2/MCP-1	0.0185 ± 0.012	0.0085 ± 0.011	0.062	0.0175 ± 0.0021	0.0235 ± 0.028	0.031 ± 0.034	-0.0105 ± 0.021	-0.0305 ± 0.0035	-0.0245 ± 0.029	0.0125 ± 0.012	0.0085 ± 0.018	-0.0035 ± 0.0021	-0.007 ± 0.018	0.0015 ± 0.043	-0.006 ± 0.0028	-0.0145 ± 0.005	0.0115 ± 0.022	-0.001	-0.0055 ± 0.012	0.007 ± 0.028
KF3CT:CXCL9/MIG	-0.0015 ± 0.011	-0.0005 ± 0.0092	0.015	-0.008 ± 0.0057	-0.0015 ± 0.0092	-0.0035 ± 0.023	-0.0035 ± 0.0021	0.008 ± 0.0042	-0.0235 ± 0.015	-0.0065 ± 0.016	0.0055 ± 0.00071	0.0025 ± 0.0035	-0.002 ± 0.0042	0.0055 ± 0.0021	0.0075 ± 0.0064	0.0035 ± 0.012	0.0095 ± 0.012	-0.0015 ± 0.0021	0.002 ± 0.0028	0.0055 ± 0.005
MyoF:Decorin	0.004 ± 0.0099	0.0055 ± 0.013	0.07	0.0105 ± 0.012	0.005 ± 0.0085	-0.016 ± 0.0085	0.0005 ± 0.016	0.004 ± 0.016	0.022 ± 0.037	0.033 ± 0.027	0.0515 ± 0.026	0.0195 ± 0.059	0.018 ± 0.03	0.0365 ± 0.021	-0.0215 ± 0.015	0.0005 ± 0.023	0.024 ± 0.013	0.0055 ± 0.0064	0.013 ± 0.016	0.02 ± 0.03
HDF3CGF:MMP-1	-0.008 ± 0.0099	0.012 ± 0.0085	-0.008	-0.008 ± 0.016	-0.005 ± 0.011	0.0005 ± 0.013	0.0135 ± 0.0064	0.0905 ± 0.022	0.133 ± 0.022	-0.044 ± 0.016	-0.019 ± 0.0071	0.006 ± 0.0071	-0.002 ± 0.0014	0.01 ± 0.024	0.0155 ± 0.036	0.0045 ± 0.016	-0.0145 ± 0.043	0.0025 ± 0.018	-0.0035 ± 0.0021	-0.016 ± 0.059
KF3CT:uPA	0.0015 ± 0.0021	0.0165 ± 0.0035	0.01	0.007 ± 0.014	-0.011 ± 0.014	-0.0085 ± 0.012	-0.012 ± 0.0099	0.0155 ± 0.00071	-0.0225 ± 0.00071	-0.014 ± 0.038	0.0115 ± 0.032	0.0025 ± 0.016	-0.0055 ± 0.012	-0.003 ± 0.027	0.0125 ± 0.0064	-0.004 ± 0.0085	0.016 ± 0.0099	0.0095 ± 0.0021	0.0015 ± 0.0078	0.0065 ± 0.00071
CASM3C:Serum Amyloid A	0.001 ± 0.0014	-0.0085 ± 0.018	0.053	0.0135 ± 0.0078	0.0445 ± 0.0078	0.073 ± 0.041	-0.007	-0.0175 ± 0.016	-0.0305 ± 0.08	0.033 ± 0.048	-0.007 ± 0.014	0.014 ± 0.035	0.001 ± 0.064	-0.009 ± 0.024	0.0315 ± 0.012	-0.003 ± 0.0028	0.01 ± 0.047	-0.029 ± 0.04	0.012 ± 0.035	0.018 ± 0.021
3C:CD141/Thrombomodulin	-0.015 ± 0.031	-0.021 ± 0.024	-0.013	-0.002 ± 0.0085	-0.009 ± 0.018	-0.0345 ± 0.013	-0.059 ± 0.027	-0.0955 ± 0.025	-0.142 ± 0.027	-0.0165 ± 0.036	-0.024 ± 0.042	-0.0095 ± 0.015	0.024 ± 0.011	0.187 ± 0.014	-0.0205 ± 0.005	-0.022 ± 0.027	-0.006	-0.0025 ± 0.018	-0.005 ± 0.0042	0.0195 ± 0.005
